Tests used:
Akt phosphorylation = assay: Western blot of PI3K signaling proteins in glioma cells; assay type: cell-based, human; conditions: 200 nM DS
Protocol: The levels of PI3K/mTOR signaling proteins, including pAkt, pS6 and P4EBP1 decreased in a dose- and time-dependent manner in all tested glioma cells (Figure 2A and 2B) as well as in the glioma tumor-initiating cell line GSC11 (Figure 2A and 2B). DS suppression of pAkt caused subsequent effects on Akt effectors such as 4EBP1 and S6 at 200-nM concentrations, and the maximum effects on Akt phosphorylation were observed 8 hours after 200 nM DS treatment.
Figure 2 DS7423 suppresses the PI3K signaling pathway in a dose- or time-dependent manner A. and B. Western blotting was performed to analyze the cellular protein levels of PI3K signaling proteins in U87 and LN229 glioma cells and GSC11 GICs. Cells were treated with the indicated doses of DS7423 for the indicated time intervals. DS7423 inhibited phosphorylation of the PI3K signaling components pAKT, pS6, and p4EBP1 in a time-dependent manner. D. Cells treated with the indicated doses of DS7423 for 24 hours. DS7423 inhibited phosphorylation of the PI3K signaling components pAKT, pS6, and p4EBP1 in a dose-dependent manner.
Cells were incubated with DS and then harvested and extracts were prepared for immunoblotting analysis. […]

p110β = p110β (Homo sapiens, UniProt P42338); assay: class I PI3K HTRF assay, p110β; assay type: biochemical
p110β, sequence (P42338 whole entry): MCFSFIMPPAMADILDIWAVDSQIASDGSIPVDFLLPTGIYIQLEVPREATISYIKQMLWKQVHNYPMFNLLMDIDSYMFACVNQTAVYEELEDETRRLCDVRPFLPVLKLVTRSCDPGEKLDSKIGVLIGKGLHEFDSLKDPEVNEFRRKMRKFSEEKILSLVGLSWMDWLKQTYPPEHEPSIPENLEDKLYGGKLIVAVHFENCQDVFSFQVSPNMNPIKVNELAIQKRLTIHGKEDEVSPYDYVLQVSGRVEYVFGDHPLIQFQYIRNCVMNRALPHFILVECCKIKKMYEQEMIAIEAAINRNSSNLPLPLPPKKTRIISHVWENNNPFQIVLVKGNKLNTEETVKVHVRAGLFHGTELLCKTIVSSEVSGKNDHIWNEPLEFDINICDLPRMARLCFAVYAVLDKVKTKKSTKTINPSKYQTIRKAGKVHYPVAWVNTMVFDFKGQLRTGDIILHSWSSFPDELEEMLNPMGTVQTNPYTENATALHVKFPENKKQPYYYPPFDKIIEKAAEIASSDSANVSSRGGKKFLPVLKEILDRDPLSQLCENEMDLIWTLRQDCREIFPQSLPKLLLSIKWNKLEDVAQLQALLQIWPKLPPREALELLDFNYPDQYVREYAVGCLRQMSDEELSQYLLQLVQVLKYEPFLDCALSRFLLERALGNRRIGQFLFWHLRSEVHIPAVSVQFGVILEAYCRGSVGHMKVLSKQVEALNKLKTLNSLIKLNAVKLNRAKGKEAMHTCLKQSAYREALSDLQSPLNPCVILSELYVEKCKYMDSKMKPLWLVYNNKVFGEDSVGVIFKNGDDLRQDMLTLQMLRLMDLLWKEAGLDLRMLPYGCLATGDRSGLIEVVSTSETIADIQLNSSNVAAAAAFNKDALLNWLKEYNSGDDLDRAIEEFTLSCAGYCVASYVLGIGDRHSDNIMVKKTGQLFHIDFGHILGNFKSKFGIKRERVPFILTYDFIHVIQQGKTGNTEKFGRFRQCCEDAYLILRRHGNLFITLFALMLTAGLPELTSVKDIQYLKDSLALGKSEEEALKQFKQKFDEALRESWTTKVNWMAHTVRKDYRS
p110β, sequence (P27986 whole entry partner): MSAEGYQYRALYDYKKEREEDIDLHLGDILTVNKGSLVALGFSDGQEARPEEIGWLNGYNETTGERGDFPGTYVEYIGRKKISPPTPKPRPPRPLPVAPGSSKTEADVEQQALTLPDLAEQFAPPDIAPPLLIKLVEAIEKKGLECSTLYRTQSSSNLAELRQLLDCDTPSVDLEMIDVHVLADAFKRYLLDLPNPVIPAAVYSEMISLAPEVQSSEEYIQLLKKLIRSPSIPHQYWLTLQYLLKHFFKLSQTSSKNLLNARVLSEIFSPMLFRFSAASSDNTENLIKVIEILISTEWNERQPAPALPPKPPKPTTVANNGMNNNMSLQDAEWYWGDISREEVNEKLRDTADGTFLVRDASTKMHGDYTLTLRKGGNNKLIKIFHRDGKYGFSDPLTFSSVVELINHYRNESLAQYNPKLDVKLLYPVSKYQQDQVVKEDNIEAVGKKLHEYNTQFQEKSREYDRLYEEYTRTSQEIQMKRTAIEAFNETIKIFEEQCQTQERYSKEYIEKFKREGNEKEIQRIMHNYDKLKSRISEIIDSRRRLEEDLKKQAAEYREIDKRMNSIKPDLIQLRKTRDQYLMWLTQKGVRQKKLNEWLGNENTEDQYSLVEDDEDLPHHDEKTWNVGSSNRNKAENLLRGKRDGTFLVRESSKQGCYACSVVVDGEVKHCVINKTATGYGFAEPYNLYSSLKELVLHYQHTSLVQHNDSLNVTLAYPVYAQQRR
Protocol: DS7423 inhibits PI3K/mTOR activity likely binding to the ATP binding cleft of these enzymes and was tested against class I PI3K and other kinases using an HTRF assay format and direct measurement of substrate phosphorylation, respectively.

How did the “time of maximum effects on Akt phosphorylation” value (Akt phosphorylation) turn out when `CC(=O)N1CCN(c2nc3c(N4CCOCC4)nc(-c4cnc(N)nc4)nc3n2CC(F)(F)F)C[C@H]1C` [DS, 1-{(2R)-4-[2-(2-Aminopyrimidin-5-yl)-6-(morpholin-4-yl)-9-(2,2,2-trifluoroethyl)-9H-purin-8-yl]-2-methylpiperazin-1-yl}ethan-1-one] was run?
The value was 8 h.

And the IC50 (p110β)?
The IC50 was 1140 nM.

Reference: publication PMC5400620, “Preclinical therapeutic efficacy of a novel blood-brain barrier-penetrant dual PI3K/mTOR inhibitor with preferential response in PI3K/PTEN mutant glioma” (Oncotarget, 2017)
